Values after ≈ are worked out from the molar mass of the structure shown.
Assays:
KG-1a cells [1] = test: Trypan blue exclusion test, cell numbers of KG-1a cells; format: cell-based, human; conditions: IC20 concentrations, 48 h
Protocol: (§1) This test was used to confirm the cytotoxicity of the test samples. The cancer cells after exposure to crude ethanolic extracts and active compounds for 48 h were harvested and washed with ice-cold PBS, pH 7.4 for 3 times. Then, the cells were resuspended with PBS, pH 7.4. The cell suspensions were diluted with PBS, pH 7.4 at the appropriate dilution before being mixed with 0.2% trypan blue solution at 1:2 dilution for cell count on a hemocytometer. From this test, the viable cells and the dead cells could also be obviously detected.
as §1, with “crude ethanolic extracts and active compounds. KG-1a” for “the test samples. The cancer”

PBMCs = test: MTT cytotoxicity assay in PBMCs; format: cell-based, human
Protocol: PBMCs were isolated from blood samples using the Ficoll-Hypaque technique. Initially, 10–20 mL of blood was collected in a heparin tube at a ratio of 1:500 from a minimum of three healthy volunteers. Subsequently, the blood samples were diluted with Phosphate buffer saline (PBS), pH 7.4, at a ratio of 1:1 to reduce viscosity. Histopaque-1077 (Sigma-Aldrich, MA, USA) was then underlaid the diluted sample and centrifuged at 400×g for 30 min. The resulting PBMCs were collected, washed with PBS, pH 7.4, and prepared for further experiments.
(§2) MTT (3-(4,5-dimethylthiazol-2-yl)-2,5-diphenyltetrazolium bromide) assay was used to investigate the cytotoxicity of the test samples. KG-1a (1.5 × 10^4 cells/well), K562 (1.0 × 10^4 cells/well), PBMCs (1.0 × 10^5 cells/well), A549 (5.0 × 10^3 cells/well), MCF-7 (5.0 × 10^3 cells/well), and HeLa (5.0 × 10^3 cells/well) were seeded into a 96-well plate and incubated overnight at 37 °C with 5% CO2. […] After that, 5 mg/mL of MTT dye solution (Sigma-Aldrich, MA, USA) was added and incubated for 4 h. The produced formazan crystals were dissolved in 200 µL of DMSO (Sigma-Aldrich, MA, USA); then, the optical density (OD) was measured using an ELISA plate reader (Metertech, Taipei, Taiwan) at 578 nm with a reference wavelength of 630 nm. The percentage of surviving cells was calculated from the absorbance values of the test and control wells using the following Equation. 1 [drawing 1]
(§3) where ODsample is a mean absorbance in test well and ODvehicle control is a mean absorbance in VC well. The average percentage of surviving cells at each concentration obtained from triplicate experiments was plotted as a dose-response curve. Inhibitory concentration values at 50% growth (IC50 value) were defined as the lowest concentration of the test sample that inhibited cell growth by 50% compared to the untreated control.
(§4) To calculate IC50 values, a dose-response curve was fitted using non-linear regression analysis, as described in the GraphPad Prism guidelines (https://www.graphpad.com/support/faq/how-to-determine-an-icsub50sub/). The IC50 value was obtained by determining the point at which the curve intersected 50% growth inhibition. Non-linear regression graphs of the dose-response curve for each compound are provided in the supplementary data file (Figs. S1–S8).

[2] = system: WT1 protein expression in KG-1a cells; test: WT1 protein expression in KG-1a cells by Western blotting; format: cell-based, human
Protocol: (§5) KG-1a cells (1.5 × 10^5 cells/mL) were treated with compounds or extracts at different incubation times. Then, the cells were harvested and the whole proteins were extracted using a RIPA buffer (25 mM Tris-base, pH 7.6, 0.1% SDS, 1% Triton X-100, 150 mM NaCl, and 1 mM EDTA). The protein concentration was measured using the Folin-Lowry or Bradford assay. The whole protein lysates (30 µg/lane) were then separated through 7.5% SDS-PAGE under reducing conditions and then transferred to PVDF membranes. The membranes were blocked in 5% skim milk in PBS, pH 7.4 at RT for 2 h, then, target proteins were probed with specific primary antibodies (anti-WT1, anti-CD34, anti-GAPDH, anti-cleaved caspase-3, anti-cleaved PARP, anti-phospho-Akt, anti-phospho-c-Jun, anti-phospho-SAPK/JNK, and anti-YAP/TAZ) indicated in Table S10 which diluted at a ratio of 1:1,000 in PBS, pH 7.4 at RT for 2 h. After incubation, the membranes were rinsed 6 times with 0.1% Tween-20 (Sigma-Aldrich, MA, USA) in PBS, pH 7.4 (PBS-T), each time for 5 min. The reaction was followed by HRP-conjugated secondary antibody at 1:20,000 dilution in PBS, pH 7.4 at RT for 2 h, then, the membranes were rinsed 6 times for 5 min each with PBS-T. The proteins were shown using Immobilon Forte Western HRP substrate (Millipore, MA, USA). Finally, the protein band signal was quantified by using a scan densitometer (Bio-Rad Laboratories, CA, USA).

[3] = system: NO production in LPS-activated RAW264.7 cells; test: NO production in LPS-activated RAW264.7 cells; format: cell-based, mouse; conditions: IC20 concentration, LPS-activated, 24 h
Protocol: For the measurement of tumor necrosis factor-alpha (TNF-α) and NO, RAW264.7 cells were pre-treated with plant extracts and active compounds at a non-cytotoxic dose (IC20) (Table S9) or 1 µg/mL of dexamethasone (positive control) in a 24-well plate for 2 h. Subsequently, 1 µg/mL of lipopolysaccharide (LPS) (Cat No. 00497693, Invitrogen™, MA, USA) was added to each well, and the cells were incubated for an additional 24 h to allow sufficient time for the compounds to exert measurable anti-inflammatory effects while maintaining cell viability. Afterward, supernatants were collected, and the levels of TNF-α and NO were measured using the Mouse TNF alpha Uncoated ELISA Kit (Invitrogen™, ThermoFisher Scientific, MA, USA) and the Total Nitric Oxide Assay Kit (Invitrogen™, ThermoFisher Scientific, MA, USA), respectively, according to the manufacturer’s instructions.
The percentage of NO or cytokine inhibitions were calculated using the following equation: […]
where A is the level of cytokine or NO without treatment, and B is the level of cytokine or NO with treatment.

[4] = system: CD34 protein expression in KG-1a cells; test: CD34 protein expression in KG-1a cells by Western blotting; format: cell-based, human; conditions: IC20 concentrations, 48 h, normalized to GAPDH
Protocol: as §5

RAW264.7 cells = test: Cytotoxicity (IC20, cell viability) in RAW264.7 cells; format: cell-based; conditions: incubation for 48 h
Protocol: MTT (3-(4,5-dimethylthiazol-2-yl)-2,5-diphenyltetrazolium bromide) assay was used to investigate the cytotoxicity of the test samples. […] After that, 5 mg/mL of MTT dye solution (Sigma-Aldrich, MA, USA) was added and incubated for 4 h. The produced formazan crystals were dissolved in 200 μL of DMSO (Sigma-Aldrich, MA, USA); then, the optical density (OD) was measured using an ELISA plate reader ([…], Taiwan) at 578 nm with a reference wavelength of 630 nm. The percentage of surviving cells was calculated from the absorbance values of the test and control wells using the following Equation. 1 [drawing 1] […] Afterward, supernatants were collected, and the levels of TNF-α and NO were measured using the Mouse TNF alpha Uncoated ELISA Kit (InvitrogenTM, ThermoFisher Scientific, MA, USA) and the Total Nitric Oxide Assay Kit (InvitrogenTM, ThermoFisher Scientific, MA, USA), respectively, according to the manufacturer's instructions.

KG-1a cells [5] = test: MTT cytotoxicity assay in KG-1a cells; format: cell-based, human; conditions: for Selectivity index (SI): IC50 for normal cells (PBMCs) / IC50 for cancer cells (KG-1a)
Protocol: as §2, §3, §4
where IC50 N is IC50 for normal cells and IC50 C is IC50 for cancer cells which were treated with the same compounds in both cells.

[6] = system: cleaved caspase-3 and PARP in KG-1a cells; test: Cleaved caspase-3 and cleaved PARP in KG-1a cells by Western blotting; format: cell-based, human; conditions: IC50 concentrations (curcumin 10 µg/mL, shogaol 3 µg/mL, nocodazole 10 ng/mL), 0–12 h
Protocol: as §5

KG-1a cells [7] = test: Cell death analysis by PI staining and flow cytometry in KG-1a cells; format: cell-based, human; conditions: nocodazole 5–120 ng/mL, shogaol 6–9 µg/mL, curcumin various concentrations; time course
Protocol: Additionally, PI staining was used to investigate the cytotoxicity of the active compounds. KG-1a cells after exposure to the active compounds with various concentration were harvested at different incubation times and washed with ice-cold PBS, pH 7.4 for 2 times. Then, the cells were resuspended with PI in PBS, pH 7.4 at a ratio of 1:10,000. The percentage of dead cells was detected by flow cytometry (CytoFLEX S, Beckman Coulter, CA, USA) and analyzed by CytExpert program (Beckman Coulter, CA, USA).

KG-1a cells [8] = test: Cell cycle and apoptosis (sub-G1) assay by flow cytometry in KG-1a cells; format: cell-based, human; conditions: 48 h
Protocol: After treating KG-1a cells with active compounds at various concentrations for 48 h, the cells were pulsed with 10 µM BrdU (Sigma-Aldrich, MA, USA) for 20 min at 37 °C in an incubator with 5% CO2. Subsequently, the cells were harvested, washed with ice-cold PBS, pH 7.4 three times, and then fixed with 70% ethanol in PBS, pH 7.4 at −30 °C. Following fixation, the cells were washed and resuspended in 2 N HCl/0.5% Triton X-100 for 30 min at room temperature (RT). Then, 0.1 M sodium tetraborate decahydrate was added for 2 min at RT to neutralize the acid. Subsequently, the cells were stained with FITC-anti-BrdU antibody for 30 min at RT. After washing, the cells were resuspended in propidium iodide (PI) (Dojindo, Kumamoto, Japan) in PBS, pH 7.4 at a ratio of 1:1,000. The cell cycle phases were detected using a flow cytometer (CytoFLEX S, Beckman Coulter, CA, USA) and analyzed with the CytExpert program (Beckman Coulter, CA, USA).
The flow cytometry data were analyzed to assess both apoptosis and cell cycle distribution. Apoptosis was evaluated by determining the percentage of cells in the sub-G1 phase using the Nicoletti assay. For cell cycle analysis, populations in the G1, S, and G2/M phases were calculated after excluding the sub-G1 population to avoid interference from apoptotic cells, allowing for a clearer assessment of cell cycle arrest in different phases. Data were presented in separate graphs for the sub-G1 population and cell cycle phase distributions.

[9] = active compounds and drugs, MTT, 48 h

CCCCC[C@H](O)CC(=O)CCc1ccc(O)c(OC)c1 [Gingerol, gingerol]
decrease of total cell number compared to VC (KG-1a cells [1]): 31.39 ± 8.69%
normalized viable cell counts (KG-1a cells [1]): 979.50 ± 8.90 × 10^3 cells per 1 million total cells
IC50 value R1 (PBMCs; Table S8, PBMCs, first replicate): > 100 µg/mL
IC50 value Mean (PBMCs; Table S8, PBMCs, mean of R1-R3): > 100 µg/mL
IC50 value R3 (PBMCs; Table S8, PBMCs, third replicate): > 100 µg/mL
IC50 PBMCs (PBMCs; [9]): > 100 µg/mL
IC20 PBMCs (inhibitory concentration at 20% growth) (PBMCs; incubation for 48 h): 76.94 ± 4.13 µg/mL (≈ 261 µM)
decrease of WT1 protein level compared to VC ([2]; IC20 concentrations, 48 h, normalized to GAPDH): 43.98 ± 8.93%
effect on NO production compared to dexamethasone (positive control) [3]: had no effect
decrease of CD34 protein level compared to VC [4]: 31.95 ± 5.70%
IC20 RAW264.7 (inhibitory concentration at 20% growth) (RAW264.7 cells): 16.73 ± 4.64 µg/mL (≈ 56.8 µM)
Selectivity index (SI) (KG-1a cells [5]; 48 h): > 1.30
Selectivity index (SI) (KG-1a cells [5]; 48 h, listed as gingerol): greater than 1
IC50 value R1 (KG-1a cells [5]; Table S7, KG-1a, first replicate): 77.86 µg/mL (≈ 264 µM)
IC50 value R3 (KG-1a cells [5]; Table S7, KG-1a, third replicate): 77.08 µg/mL (≈ 262 µM)
IC50 KG-1a (KG-1a cells [5]; [9]): 76.77 ± 1.28 µg/mL (≈ 261 µM)
IC20 KG-1a (inhibitory concentration at 20% growth) (KG-1a cells [5]; incubation for 48 h): 14.09 ± 3.87 µg/mL (≈ 47.9 µM)

COC(=O)Nc1nc2ccc(C(=O)c3cccs3)cc2[nH]1 [Nocodazole, nocodazole, reference compound]
time to activation of cleaved caspase-3 and PARP [6]: failed to induce the activation of cleaved caspase-3 and PARP even after 12 h of incubation
effect on WT1 expression ([2]; IC50 concentration, up to 12 h): failed to reduce WT1 expression even after 12 h of incubation
induction of cell death (PI staining) (KG-1a cells [7]): significant induction of cell death after 24 h of incubation
IC50 (KG-1a cells [5]; Homo sapiens, KG-1a, as used for Western blotting, read-out: IC50 concentration in KG-1a cells): 0.01 µg/mL (≈ 0.0332 µM)
IC20 (KG-1a cells [5]; Homo sapiens, KG-1a, as used in the cell cycle assay, read-out: IC20 concentration in KG-1a cells): 0.006 µg/mL (≈ 0.0199 µM)
effect on sub-G1 population compared to VC (KG-1a cells [8]; IC20 concentration (nocodazole 6 ng/mL, curcumin 3 µg/mL, shogaol 0.12 µg/mL)): significantly increased the sub-G1 population
increase of proportion of cells in G2/M phase (KG-1a cells [8]; IC20 concentration, sub-G1 excluded): 23.48 ± 1.35%
